Measured values as given in ChEMBL document CHEMBL1156361, “Structure-activity relationship of in vitro antiviral and cytotoxic activity of semisynthetic analogues of scopadulane diterpenes” (J Nat Prod, 2001).
≈ marks a conversion by molar mass, not a printed value. Calls of active or inactive are those of the source. The calls are words filed in the database; no cut-off is given here.

Legend:
[1] = Cytotoxicity against bovine Bon-Fib cells after 48 hrs; format: cell-based, Bos taurus; settings: cattle
Human alphaherpesvirus 2 [2] = test: Antiviral activity against Herpes simplex virus 2 infected in african green monkey Vero cells assessed as ratio of the viral titers in absence to presence of drug after 48 hrs by end-point titration technique; format: functional
Vero = test: Cytotoxicity against african green monkey Vero cells by end-point titration technique; format: cell-based; settings: chlorocebus sabaeus
Human alphaherpesvirus 2 [3] = test: Antiviral activity against Herpes simplex virus 2 infected in african green monkey Vero cells assessed as maximal nontoxic dose that showed the highest viral reduction factor after 48 hrs by end-point titration technique; format: functional
CHO = test: Cytotoxicity against CHO cells after 48 hrs; format: cell-based, Cricetulus griseus; settings: chinese hamster
HEp-2 = test: Cytotoxicity against human Hep2 cells after 48 hrs; format: functional
HeLa = test: Cytotoxicity against human HeLa cells after 48 hrs; format: functional
[4] = Therapeutic index, ratio of CC50 for african green monkey Vero cells to IC50 for Herpes simplex virus 2 by MTT assay; format: cell-based; settings: read-out: Ratio CC50/IC50
[5] = Cytotoxicity against african green monkey Vero cells by MTT assay; format: cell-based; settings: chlorocebus sabaeus
Human alphaherpesvirus 2 [6] = test: Antiviral activity against Herpes simplex virus 2 infected in african green monkey Vero cells assessed inhibition of virus-induced effect after 48 hrs by MTT assay; format: functional, organism-based; settings: Human alphaherpesvirus 2, Vero

| Compound | CC100 [1] | Ratio (Human alphaherpesvirus 2 [2]) | CC100 (Vero) | Activity (Human alphaherpesvirus 2 [3]) | CC100 (CHO) | CC100 (HEp-2) | CC100 (HeLa) | selectivity ratio [4] | CC50 [5] | IC50 (Human alphaherpesvirus 2 [6]) |
| --- | --- | --- | --- | --- | --- | --- | --- | --- | --- | --- |
| CC1(C)CCC[C@@]2(C)[C@H]1C[C@@H](O)C1=CC(=O)[C@]3(C)CC[C@]12C3 | 10 µg/mL | 10 | 28 µg/mL | 14 µg/mL | 20 µg/mL |  |  |  |  |  |
| CC1(C)CCC[C@@]2(C)[C@H]1C[C@H](O)[C@H]1CC(=O)[C@]3(C)CC[C@]12C3 |  | 5 | 48 µg/mL | 10 µg/mL |  |  |  |  |  |  |
| CC(=O)O[C@H]1C[C@H]2C(C)(C)CCC[C@]2(C)[C@@]23CC[C@](C)(C2)[C@H](OC(C)=O)C[C@H]13 [THYRSIFLORIN C DIACETATE] | 60 µg/mL | 5 | 50 µg/mL | 10 µg/mL | 40 µg/mL |  |  |  |  |  |
| CC1(C)CCC[C@@]2(C)[C@H]1CCC1=CC(=O)[C@@]3(C)C[C@@]12CC3=O |  | 10 | 60 µg/mL | 30 µg/mL |  |  |  |  |  |  |
| COC(=O)CC(=O)O[C@@H]1C[C@@H]2[C@@H](OC(C)=O)C[C@H]3C(C)(C)CCC[C@]3(C)[C@]23CC[C@]1(C)C3 [METHYL THYRSIFLORIN B ACETATE] | 60 µg/mL | 5 | 30 µg/mL | 15 µg/mL | 30 µg/mL | 30 µg/mL | 30 µg/mL |  |  |  |
| CC(=O)O[C@H]1C[C@H]2C(C)(C)CCC[C@]2(C)[C@@]23CC[C@](C)(C2)[C@@H](O)C[C@H]13 |  | 10 | 50 µg/mL | 25 µg/mL |  |  |  |  |  |  |
| CC1(C)CCCC2=C1CC[C@@]13CC[C@](C)(C[C@@]21C)C(=O)C3 |  | inactive | 35 µg/mL | inactive |  |  |  |  |  |  |
| CC1(C)CCC[C@@]2(C)[C@H]1CC[C@@]13CC(=O)[C@]4(C)CC1[C@]32C4 |  | 10 | 40 µg/mL | 20 µg/mL |  |  |  |  |  |  |
| CC1(C)CCC[C@@]2(C)[C@H]1CC[C@H]1C[C@@H](O)[C@]3(C)CC[C@]12C3 |  | 100 | 32 µg/mL | 7.5 µg/mL |  |  |  | 1.25 | 19.5 µg/mL (≈ 67.1 µM) | 16.5 µg/mL (≈ 56.8 µM) |
| CC1(C)CCC[C@@]2(C)[C@H]1CCC1=CC(=O)[C@]3(C)CC[C@]12C3 |  | 100 | 40 µg/mL | 20 µg/mL |  |  |  | 0.72 | 23.2 µg/mL (≈ 81 µM) | 32.4 µg/mL (≈ 113 µM) |
| COC(=O)CC(=O)O[C@@H]1C[C@@H]2CC[C@H]3C(C)(C)CCC[C@]3(C)[C@]23CC[C@]1(C)C3 [METHYL THYRSIFLORIN A] | 28 µg/mL | 5 | 30 µg/mL | 15 µg/mL | 28 µg/mL |  |  |  |  |  |
| CC1(C)CCC[C@@]2(C)[C@H]1CC[C@H]1CC(=O)[C@]3(C)CC[C@]12C3 | 24 µg/mL | 100 | 28 µg/mL | 14 µg/mL | 24 µg/mL |  |  | 0.81 | 16.7 µg/mL (≈ 57.9 µM) | 21 µg/mL (≈ 72.9 µM) |
| CC1(C)CCC[C@@]2(C)[C@H]1C[C@@H](O)[C@@H]1CC(=O)[C@]3(C)CC[C@]12C3 |  | 100 | 60 µg/mL | 30 µg/mL |  |  |  | 0.66 | 27.8 µg/mL (≈ 91.3 µM) | 42.1 µg/mL (≈ 138 µM) |
| CC1(C)CCC[C@@]2(C)[C@H]1C[C@H](O)[C@H]1C[C@@H](O)[C@]3(C)CC[C@]12C3 [THYRSIFLORIN C] | 60 µg/mL | inactive | 30 µg/mL | inactive | 45 µg/mL |  |  |  |  |  |
| Nc1nc2c(ncn2COCCO)c(=O)[nH]1 [ACYCLOVIR] |  | 100000 | > 600 µg/mL | 6 µg/mL |  |  |  |  |  | 4.21 µg/mL (≈ 18.7 µM) |
